Square brackets hold non-standard residues; d marks the D form. Peptide text beside a SMILES is read from it. * marks the point of attachment. FITC = O=C1OC2(c3ccc(O)cc3Oc3cc(O)ccc32)c2ccc(NC(=S)*)cc21; Tyr(3-I) = N[C@@H](Cc1ccc(O)c(I)c1)C(=O)O
What was measured:
[1] = system: HCC36 cells; test: Specific retention of probe via flow cytometry; type: cell-based, Human; conditions: control HCC36 cells, 10 μM probe 1 h, washed three times per hour, 8 h
Description: (§1) We also used the WT probe (GRKKRRQRRR-[…]-LKKKYK-FITC) and the scrambled sequence probe (GRKKRRQRRR-[…]-LKKKYK) that could not be activated by protease as a control group to test the specific retention of probe via flow cytometry. HCC36 cells, NS3/4A-HCC36 cells, or JFH-1-infected HCC36 cells were incubated with 10 μM TAT-ΔNS3/4A-FITC or 10 μM TAT-scrambled NS3/4A-FITC in the absence or presence of 2 μM telaprevir (NS3/4A protease inhibitor) at 37 °C for 1 h. The cells were washed with DMEM containing 10% serum three times per hour. After culturing for 1 or 8 h, the fluorescence of viable cells was observed via flow cytometry.
(§2) Supplementary file Image_5.TIF: Supplementary Figure 5 To evaluate the specific retention of probe via flow cytometry, we used the WT probe (GRKKRRQRRR-[…]-LKKKYK-FITC) and the scrambled sequence probe (GRKKRRQRRR-[…]-LKKKYK) that could not be activated by protease as a control group to test the specific retention of probe via flow cytometry. HCC36 cells, NS3/4A-HCC36 cells, or JFH-1-infected HCC36 cells were incubated with 10 μM TAT-ΔNS3/4A-FITC or 10 μM TAT-scrambled NS3/4A-FITC in the absence or presence of 2 μM telaprevir (NS3/4A protease inhibitor) at 37°C for 1 h. The cells were washed with DMEM containing 10% serum three times per hour. After culturing for 1 or 8 h, the fluorescence of viable cells was observed via flow cytometry. Click here for additional data file.

[2] = system: JFH-1-infected HCC36 cells; test: Specific retention of probe via flow cytometry; type: cell-based, Human; conditions: 10 μM probe 1 h, washed three times per hour, 8 h
Description: as §1, §2

[3] = system: NS3/4A-HCC36 cells; test: Specific retention of probe via flow cytometry; type: cell-based, Human; conditions: 10 μM probe 1 h, washed three times per hour, 8 h
Description: as §1, §2

[4] = system: HCC36 cells; test: Cellular retention of radioactivity of TAT-ΔNS3/4A-124I-FITC, gamma-counter; type: cell-based, Human; conditions: control HCC36 cells, 37 kBq probe 37°C 1 h, cultured 0, 4, 6, 8 h with washing, CPM normalized by protein
Description: (§3) HCC36 or NS3/4A-HCC36 (1 × 10^5) cells were seeded with DMEM containing 10% serum in a 24-well plate at 37°C in a CO2 incubator overnight. The cells were incubated with 37 kBq of TAT-ΔNS3/4A-^124I-FITC in the presence or absence of 2 μM telaprevir (Vertex, Cambridge MA) at 37°C for 1 h. After probe staining, the cells were washed using DMEM containing 10% serum per 20 min until the end of the experiment. At different time points, the cells were collected by treatment with trypsin. The radioactivity of the cells was then measured using a gamma-counter. The CPM was normalized by protein concentration.
(§4) FIGURE 4 Specificity and half-life of TAT-ΔNS3/4A-^124I-FITC. (A) NS3/4A-HCC36 and HCC36 cells were incubated with 37 kBq of TAT-ΔNS3/4A-^124I-FITC in the presence or absence of 2 μM Telaprevir at 37°C for 1 h. The cells were washed with DMEM containing 10% serum three times per hour. The cells were collected by treatment with trypsin at the indicated times. The radioactivity of the cells was then measured with a gamma-counter. The CPM was normalized by protein concentration. […] Error bar: standard error of triplicate determinations.

[5] = system: NS3/4A-HCC36 cells; test: as above; type: cell-based, Human
Description: as §3, §4

[6] = Blood kinetics (half-life) of TAT-ΔNS3/4A-124I-FITC in mice; parameters: species or system BALB/c nude mice; conditions: mouse, in vivo, iv, 3700 kBq; BALB/c mice, i.v., 4 h after injection, gamma-counter; read-out: radioactivity in the blood
Source text: BALB/c nude mice (n = 3) were intravenously injected with 3,700 kBq TAT-ΔNS3/4A-^124I-FITC, and blood samples were periodically removed from the tail vein of the mice. The blood was weighed on an analytical balance and assayed for radioactivity in a multichannel gamma-counter. The initial and terminal half-life of the probe was estimated by fitting the data to a two-phase exponential decay model with Prism 4 software (GraphPad Software, San Diego, CA, USA).
as §4

[7] = system: NS3/4A-HCC36 and HCC36 tumors; test: Micro-PET imaging of NS3/4A activity in xenograft mice (ROI analysis); type: in vivo, BALB/c nude mice; conditions: 6 h, n = 3
Description: BALB/c nude mice (n = 3) bearing established HCC36 and NS3/4A-HCC36 (100–200 mm^3) in their right and left hind leg, respectively, were anesthetized by halothane vapor with a vaporizer system. The mice were feed the Lugol’s solution and then intravenously injected with 3,700 kBq (in 100 μL) TAT-ΔNS3/4A-^124I-FITC. PET imaging was sequentially performed at 2, 4, and 6 h. To test the specificity of TAT-ΔNS3/4A-^124I-FITC, telaprevir (20 mg/kg/day for 3 days) or control vehicle was intraperitoneally injected into mice (n = 3) 3 days prior to TAT-ΔNS3/4A-^124I-FITC.
The mice were positioned in a micro-PET scanner (R4; Concorde Microsystems, Knoxville, Tenn) with their long axis parallel to the transaxial plane of the scanner. The scanner has a computer-controlled bed with a 10.8-cm transaxial and 8-cm axial field of view. It has no septa and operates exclusively in a three-dimensional list mode. All raw data were first sorted into three-dimensional sinograms, followed by Fourier rebinning and ordered-subsets expectation maximization image reconstruction. Fully three-dimensional list-mode data were collected by using an energy window of 350–750 keV and a time window of 6 nsec. Image pixel size was 0.85 mm transaxially, with a 1.21-mm section thickness. The region of interest was analyzed with ASIPro VM version 5.0 (Concorde Microsystems, Knoxville, TN, USA) analysis software. […]

[8] = system: NS3/4A-HCC36 and HCC36 tumors; test: Biodistribution in xenograft mice, gamma-counter; type: in vivo, BALB/c nude mice
Description: (§5) In xenograft model, BALB/c nude mice bearing established NS3/4A-HCC36 and HCC36 tumors (n = 3) were intravenously injected with 3,700 kBq (in 100 μL) TAT-ΔNS3/4A-^124I-FITC. In orthotopic model, SCID mice (n = 3) with NS3/4A-HCC36 or HCC36 tumors implanted in the liver were intravenously also injected with 3,700 kBq (in 100 μL) TAT-ΔNS3/4A-^124I-FITC. Animals were killed after anesthesia with pentobarbital (65 mg/kg) at 2, 4, and 6 h. Radioactivity in isolated tumors and tissues was measured with a multichannel gamma-counter. The biodistribution of the probe was expressed as percentage injected dose per gram of tissue (%ID/g).
FIGURE 6 Biodistribution of TAT-ΔNS3/4A-^124I-FITC in xenograft mice. Mice bearing established NS3/4A-HCC36 and HCC36 tumors were injected with 3,700 kBq of TAT-ΔNS3/4A-^124I-FITC. Selected organs and tumors were removed from the mice after 2 (white column), 4 (black column), and 6 (gray column) h. The radioactivity of individual organs was measured using a gamma-counter and normalized for sample weights. The biodistribution of TAT-ΔNS3/4A-^124I-FITC in selected organs was expressed as percentage injected dose/g tissue. Data represent mean ± SEM.

[9] = system: liver-implanted NS3/4A-HCC36 or HCC36 tumors; test: Micro-PET imaging in orthotopic liver implantation tumor model (ROI analysis); type: in vivo; conditions: SCID mice n = 3, i.v. 3,700 kBq, micro-PET 4 h
Source text: The orthotopic liver implantation model was generated as previously described ([Kim et al., 2009]). The NS3/4A-HCC36 tumors or HCC36 tumors from the ectopic tumors were harvested and transplanted into the left liver lobe of SCID mice (n = 3). After 2 weeks, the mice were feed the Lugol’s solution, and then, the 3,700 kBq of TAT-ΔNS3/4A-^124I-FITC was intravenously injected.
The mice were positioned in a micro-PET scanner (R4; Concorde Microsystems, Knoxville, Tenn) with their long axis parallel to the transaxial plane of the scanner. The scanner has a computer-controlled bed with a 10.8-cm transaxial and 8-cm axial field of view. It has no septa and operates exclusively in a three-dimensional list mode. All raw data were first sorted into three-dimensional sinograms, followed by Fourier rebinning and ordered-subsets expectation maximization image reconstruction. Fully three-dimensional list-mode data were collected by using an energy window of 350–750 keV and a time window of 6 nsec. […] The region of interest was analyzed with ASIPro VM version 5.0 (Concorde Microsystems, Knoxville, TN, USA) analysis software.
FIGURE 7 Micro-PET Imaging of NS3/4A activity in orthotopic liver implantation model. […] (B) The accumulation of radioactivity in NS3/4A-HCC36 tumors and HCC36 tumors was measured using a gamma-counter at 2 (white column), 4 (black column), and 6 (gray column) h after probe injection. […]

[10] = system: liver-implanted NS3/4A-HCC36 or HCC36 tumors; test: Radioactivity of liver-implanted tumors, gamma-counter; type: in vivo, SCID mice; conditions: orthotopic liver model, i.v. 3,700 kBq, 6 h
Description: as §5
FIGURE 7 Micro-PET Imaging of NS3/4A activity in orthotopic liver implantation model. The NS3/4A-HCC36 tumors or HCC36 tumors from the ectopic tumors were harvested and transplanted into the left liver lobe of SCID mice (n = 3). After 2 weeks, the 3,700 kBq of TAT-ΔNS3/4A-^124I-FITC was intravenously injected. (A) PET imaging was performed at 4 h after injection of the probe. (B) The accumulation of radioactivity in NS3/4A-HCC36 tumors and HCC36 tumors was measured using a gamma-counter at 2 (white column), 4 (black column), and 6 (gray column) h after probe injection. Data represent mean ± SEM. Student’s t-test analysis of data. Statistical analysis was compared NS3/4A-HCC36 with HCC36. P < 0.05 was considered statistically significant.

[11] = Long-term biodistribution in xenograft mice; type: in vivo; conditions: i.v. 3,700 kBq, gamma-counter
Description: Supplementary file Image_4.TIF: Supplementary Figure 4 Long-term biodistribution of TAT-ΔNS3/4A-^124I-FITC in xenograft mice. Mice were injected with 3,700 kBq of TAT-ΔNS3/4A-^124I-FITC. Selected organs and tumors were removed from the mice after 4, 12, and 24 h. The radioactivity of individual organs was measured using a gamma-counter and normalized for sample weights. The biodistribution of TAT-ΔNS3/4A-^124I-FITC in selected organs was expressed as percentage injected dose/g tissue. Data represent mean ± SEM. Click here for additional data file.

Molecule	fluorescence retention after culturing for 8 h [1]	fluorescence retention after culturing for 8 h [2]	fluorescence retention after culturing for 8 h [3]	radioactivity retained in the cells [4]	radioactivity retained in the cells ([5]; 37 kBq probe 37°C 1 h, cultured 0, 4, 6, 8 h with washing, CPM normalized by protein)	radioactivity retained in the cells after inhibitor treatment ([5]; 37 kBq probe + 2 μM telaprevir)	tissue uptake at 4 h [6] [%ID/g]	ROI radioactivity, NS3/4A-HCC36 tumors vs HCC36 tumors ([7]; i.v. 3,700 kBq) [fold]	ROI radioactivity, NS3/4A-HCC36 tumors vs HCC36 tumors, after inhibitor treatment ([7]; telaprevir 20 mg/kg/day i.p. for 3 days before probe) [fold]	radioactivity in normal organs (stomach, kidneys) ([8]; i.v. 3,700 kBq, 2, 4, 6 h)	accumulation of radioactivity, NS3/4A-HCC36 tumors vs HCC36 tumors ([8]; i.v. 3,700 kBq, 6 h, %ID/g, n = 3) [fold]	ROI, implanted NS3/4A-HCC36 tumors vs HCC36 tumors [9] [fold]	uptake of radioactivity, implanted NS3/4A-HCC36 tumors vs implanted HCC36 tumors [10] [fold]	radioactivity in tissues at 24 h ([11]; 24 h)	long-term accumulation of probe in kidney (and stomach) ([11]; organs at 4, 12, 24 h)
GRKKRRQRRR-ECEEEEESMDDDAH-LKKKYK [scrambled sequence probe]	cannot be accumulated in each cell	cannot be accumulated in each cell	cannot be accumulated in each cell	–	–	–	–	–	–	–	–	–	–	–	–
CSCC[C@H](NC(=O)[C@H](CCC(=O)O)NC(=O)[C@H](CC(=O)O)NC(=O)[C@H](CCC(=O)O)NC(=O)[C@H](CC(=O)O)NC(=O)[C@H](CCC(=O)O)NC(=O)[C@H](CC(=O)O)NC(=O)[C@H](CCC(=O)O)NC(=O)[C@H](CC(=O)O)NC(=O)[C@H](CCCNC(=N)N)NC(=O)[C@H](CCCNC(=N)N)NC(=O)[C@H](CCCNC(=N)N)NC(=O)[C@H](CCC(N)=O)NC(=O)[C@H](CCCNC(=N)N)NC(=O)[C@H](CCCNC(=N)N)NC(=O)[C@H](CCCCN)NC(=O)[C@H](CCCCN)NC(=O)[C@H](CCCNC(=N)N)NC(=O)CN)C(=O)N[C@@H](CCC(=O)O)C(=O)N[C@@H](CCC(=O)O)C(=O)N[C@@H](CS)C(=O)N[C@@H](C)C(=O)N[C@@H](CO)C(=O)N[C@@H](Cc1c[nH]cn1)C(=O)N[C@@H](CC(C)C)C(=O)N[C@@H](CCCCN)C(=O)N[C@@H](CCCCN)C(=O)N[C@@H](CCCCN)C(=O)N[C@@H](Cc1ccc(O)c(I)c1)C(=O)N[C@@H](CCCCNC(=S)Nc1ccc2c(c1)C(=O)OC21c2ccc(O)cc2Oc2cc(O)ccc21)C(=O)O [TAT-ΔNS3/4A-^124I-FITC] (H-GRKKRRQRRRDEDEDEDEMEECASHLKKK[Tyr(3-I)]K(FITC)-OH; N-terminus and C-terminus assumed)	–	–	–	not in control HCC36 cells	A high level of radioactivity was detected	radioactivity did not accumulate	2.6 ± 0.1	2.53	1.31	high levels of radioactivity were observed in the stomach and kidneys	2.7	4.75	3.1	did not accumulate in the all of tissues at 24 h	accumulation of probe in kidney and in stomach would quickly reduce at 12 and 24 h

— article PMC9672079, “Micro-PET imaging of hepatitis C virus NS3/4A protease activity using a protease-activatable retention probe” (Frontiers in Microbiology, 2022)
